In patent US5420335A, “Parenteral nutrients based on watersoluble glycerol bisacetoacetates” (priority 1993, dated 1995):

What was measured:
[1] = in words; cited from earlier work
[2] = Overall evaluation as a parenteral nutrient; format: in vivo, rat (male Sprague-Dawley); conditions: in words
Procedure: Water was available ad libitum at all times.
The vein was then ligated dorsally to the catheter. […] Body weights were measured daily.
Infusate volume, oral food intake, body weight and urinary volume and total nitrogen were monitored daily for each rat. Infusate volume and food intake were determined by weighing the appropriate container at the start and end of each 24 hr. period. Measurements were recorded between 9 and 10 AM each day. At the end of the 7th day, rats were sacrificed, and blood and liver were harvested. Plasma was separated for measurement of free fatty acids, glucose, and ketone bodies. Liver was weighed and a sample was fixed in buffered formalin for gross histology.
The data were analyzed for significance by the one-way analysis of variance with repeated measures and comparing the effect of dietary treatment on each day. […] The null hypothesis was concluded invalid if p≤0.05. The analysis of variance was computed on a SAS statistical package.

Molecule | enhance the absorption of certain agents in the intestine [1] | efficacy as parenteral nutrient / energy source [2]
CC(=O)OCC1COC(C)(C)O1 (stereo not shown) [2,3-isopropylidene-1-acetate] | enhance the absorption of certain agents in the intestine | –
CC(=O)CC(=O)OCC(O)COC(=O)CC(C)=O [1,3-bisacetoacetylglycerol] | enhance the absorption of certain agents in the intestine | –
CC(=O)CC(=O)OCC1COC(C)(C)O1 (stereo not shown) [1,2-isopropylideneglyceryl 3-acetoacetate] | enhance the absorption of certain agents in the intestine | –
Partially Reduced Pentaacetoacetyl-glucose [Compound 3] | – | ineffective as parenteral nutrients
